From EP4772509A1, “KINESIN KIF18A INHIBITOR, AND APPLICATION THEREOF” (Shanghai Apeiron Therapeutics Company Limited, priority 2023, dated 2025)
Where two headings read alike, the source gives them in different places.

Key:
[1] = molecular target: T1, Human KIF18A (amino acid sequence 1-417) (Homo sapiens, UniProt Q8NI77); experiment: Enzymatic activity test (ADP-Glo, microtubule-stimulated ATPase); format: biochemical; details: 60 µg/mL microtubules, 25 µM ATP, 2.5 nM KIF18A protein, 120 min at ambient temperature, chemiluminescence
T1 construct: purchased Viva Biotech (Shanghai) Ltd
T1 sequence (Q8NI77 1-417): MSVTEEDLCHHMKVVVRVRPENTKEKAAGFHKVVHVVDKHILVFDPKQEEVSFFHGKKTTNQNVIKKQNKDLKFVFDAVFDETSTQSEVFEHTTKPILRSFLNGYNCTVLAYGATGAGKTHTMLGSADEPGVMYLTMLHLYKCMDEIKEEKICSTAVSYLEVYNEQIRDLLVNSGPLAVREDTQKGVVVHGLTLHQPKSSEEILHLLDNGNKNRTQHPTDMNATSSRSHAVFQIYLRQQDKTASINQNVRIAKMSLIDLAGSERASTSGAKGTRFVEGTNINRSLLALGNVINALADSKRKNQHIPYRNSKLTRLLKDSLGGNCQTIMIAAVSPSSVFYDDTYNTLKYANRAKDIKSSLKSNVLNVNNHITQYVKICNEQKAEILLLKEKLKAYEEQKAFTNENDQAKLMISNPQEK
How it was run: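 KIF18A (1-417) at 2.5 nM with 60 µg/mL microtubules and 25 µM ATP, compounds at 0-10 µM final, reacted 120 min at ambient temperature. ADP formed was read by ADP-Glo chemiluminescence after two 30 min room-temperature steps.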

[2] = tested on: OVCAR3 cells; experiment: Cell proliferation activity test (CyQUANT Direct); format: cell-based; details: 3 days, 0.2% DMSO, CyQUANT fluorescence
How it was run: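 OVCAR3 cells in RPMI-1640 with 10% FBS were seeded, then treated overnight later with compound at final 0–10 µM (0.2% DMSO) for 3 days at 37°C, 5% CO2. Proliferation was read as CyQUANT Direct fluorescence after 60 min at 37°C.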

[3] = tested on: HT29 cells; experiment: CyQuant cell proliferation activity test; format: cell-based; details: HT29 at 2000 cells per well, 3 days, 0.2% DMSO, XLFIT
How it was run: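 Cells seeded at 2000/well in RPMI-1640 with 10% FBS, left overnight, then exposed 3 days at 37 °C, 5% CO2 to a 9-point 3-fold series from 3000 nM (0.2% DMSO). CyQuant signal read after 1 h; IC50 from curve fit.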

IC50 ([1]; read-out: KIF18A IC50) [nM] | IC50 [2] [nM] | IC50 ([3]; read-out: HT-29 IC50) [nM] | Compound | IC50 ([1]; KIF18A IC50 nM) [nM] | IC50 ([2]; Homo sapiens, OVCAR-3, 72 h) [nM] | IC50 ([3]; Homo sapiens, HT-29, 72 h) [nM]
144 | 72 | 74 | COc1cc2nc(n1)N1CCC(F)(F)C(CCCc3ccc(cc3)-c3cc(NS(=O)(=O)CCO)ccc3C(=O)N2)C1 (single isomer, unassigned) [Example 51B, N-(1^4,1^4-difluoro-2^6-methoxy-4-oxo-3-aza-2(2,4)-pyrimidin-1(1,3)-piperidin-5(1,2),6(1,4)-dibenzylcyclononane-5^4-yl)-2-hydroxyethane-1-sulfonamide] |  |  | 
521 | 500 | 671 | N-((3^4Z,7E)-1^4,1^4-difluoro-2^6-methyl-3^1H-2(2,4)-pyrimidin-1(1,3),5(1,4)-dipiperidin-3(4,1)-triazole-4(1,2)-benzocyclooct-7 -en-4^4-yl)-2-hydroxyethane-1-sulfonamide [Example 81C] |  |  | 
107 |  |  | COc1cc2nc(n1)N1CCC(F)(F)C(CCCc3ccc(cc3)-c3cc(NS(=O)(=O)CCO)ccc3C(=O)N2)C1 (single isomer, unassigned) [Example 51A, N-(1^4,1^4-difluoro-2^6-methoxy-4-oxo-3-aza-2(2,4)-pyrimidin-1(1,3)-piperidin-5(1,2),6(1,4)-dibenzylcyclononane-5^4-yl)-2-hydroxyethane-1-sulfonamide] |  | 45 | 39
491 | 178 | 254 | N-((3^4Z, 7Z)-1^4,1^4-difluoro-2^6-methyl-3^1H-2(2,4)-pyrimidin-1(1,3),5(1,4)-dipiperidin-3(4,1)-triazole-4(1,2)-benzocyclooct-7-en-4^4-y 1)-2-hydroxyethane-1-sulfonamide [Example 81B] |  |  | 
60 |  |  | Cc1cc2nc(n1)N1CCC(F)(F)C(C=CCC3=CC=C(S3)c3cc(NS(=O)(=O)CCO)ccc3C(=O)N2)C1 (single isomer, unassigned) [Example 57A, N-(1^4,1^4-difluoro-2^6-methyl-4-oxo-3-aza-2(2,4)-pyrimidin-1(1,3)-piperidin-6(2,5)-thiophene-5(1,2)-benzoazacyclon-8-en-5^4-yl)-2-hydroxyethane-1-sulfonamide] |  | 114 | 39

More lines, now with the values behind:

Compound | IC50 ([1]; read-out: KIF18A IC50) [nM] | IC50 [2] [nM] | IC50 ([3]; read-out: HT-29 IC50) [nM] | IC50 ([1]; KIF18A IC50 nM) [nM] | IC50 ([2]; Homo sapiens, OVCAR-3, 72 h) [nM] | IC50 ([3]; Homo sapiens, HT-29, 72 h) [nM]
COc1cc2nc(n1)N1CCC(F)(F)C(C=CCc3cccc(c3)-c3cc(NS(=O)(=O)CCO)ccc3C(=O)N2)C1 (stereo not drawn) [Example 54, N-(1^4,1^4-difluoro-2^6-methoxy-4-oxo-3-aza-2(2,4)-pyrimidin-1(1,3)-piperidin-5(1,2),6(1,3)-diphenylheterocyclonon-8-en-5^4-yl)-2-hydroxyethane-1-sulfonamide] |  |  |  | 1560 | 867 | > 3000
Cc1cc2nc(n1)N1CCC(F)(F)C(/C=C\CC3CCN(CC3)c3cc(NS(=O)(=O)CCO)c4c(c3C(=O)N2)CCC4(C)O)C1 (stereo not drawn) [Example 13, (cis)-N-(1^4,1^4-difluoro-5^1-hydroxy-2^6,5^1-dimethyl-4-oxo-5^2,5^3-dihydro-5^1H-3-aza-2(2,4)-pyrimidin-1(1,3),6(1,4)-dipiperidin-5(4,5)-indenocyclononane-8-en-5^7-yl)-2-hydroxyethane-1-sulfonamide] | 294 |  |  |  | 181 | 187
Cc1cc2nc(n1)N1CCC(F)(F)[C@@H](CCCC3CCN(CC3)c3cc(NS(=O)(=O)CCO)ccc3-n3cc-2nn3)C1 [Example 85, N-((1^3S,Z)-1^4,1^4-difluoro-2^6-methyl-3^1H-2(2,4)-pyrimidin-1(1,3),5(1,4)-dipiperidin-3(4,1)-triazole-4(1,2)-benzylcyclooctyl-4^4-yl)-2-hydroxyethane-1-sulfonamide] | 350 |  |  |  | 60 | 76
Cn1c2nc(cc1=O)NC(=O)c1c(cc(NS(=O)(=O)CCO)c3c1CCC3=O)N1CCC(C/C=C\C3CN2CCC3(F)F)CC1 (stereo not drawn) [Example 9, N-(11,11-difluoro-6-methyl-1,5,22-trioxo-1,5,6,9,10,11,12,15,16,17,18,22,23,24-tetradecahydro-2H-3,7-(azanediyl)-16, 19-ethano-8,12-methyleneindeno[4,5-i] [1,3,7,11]tetraazacyclohenicosan-21-yl)-2-hydroxyethane-1-sulfonamide] | 264 |  |  |  | 1060 | 1020
2-Hydroxy-N-(1^4,1^4,5^1,5^1-tetrafluoro-2^6-methyl-4-dioxo-5^2,5^3-dihydro-5^1H-3-aza-2(2,4)-pyrimidin-1(1,3),6(1,4)-dipipe ridin-5(4,5)-benzofurancyclononane-8-en-5^7-yl)-methanesulfonamide [Example 21] | 450 | 78 | 85 |  |  | 
Cc1cc2nc(n1)N1CCC(F)(F)C(CCCc3ccc(cc3)-c3cc(NS(=O)(=O)CCO)ccc3C(=O)N2)C1 (stereo not drawn) [Example 44, N-((1^3S,Z)-1^4,1^4-difluoro-2^6-methyl-3^1H-2(2,4)-pyrimidin-1(1,3),5(1,4)-dipiperidin-3(4,1)-triazole-4(1,2)-benzylcyclooctyl-4^4-yl)-2-hydroxyethane-1-sulfonamide] | 83 |  |  |  | 27 | 39
Cc1cc2nc(n1)N1CCC(F)(F)C(C=CCC3CCN(CC3)c3cc(NS(=O)(=O)CCO)c4c(c3C(=O)N2)CCC4=O)C1 (single isomer, unassigned) [Example 2D, N-(1^4,1^4-difluoro-2^6-methyl-5^1,4-dioxo-5^2,5^3-dihydro-5^1H-3-aza-2(2,4)-pyrimidin-1(1,3),6(1,4)-dipiperidin-5(4,5)-indenoheterocyclonon-8-en-5^7-yl)-2-hydroxyethane-1-sulfonamide] | 546 | 679 | 679 |  |  | 
Cc1cc2nc(n1)N1CCC(F)(F)C(/C=C/CC3CCN(CC3)c3cc(NS(=O)(=O)CCO)c4c(c3C(=O)N2)CCNC4=O)C1 (stereo not drawn) [Example 17, N-(6^4,6^4-difluoro-5^6-methyl-2^1,3-dioxo-2^1,2^2,2^3,2^4-tetrahydro-4-aza-2(6,5)-isoquinoline-5(4,2)-pyrimidin-1(1,4),6(1,3)-dipiperidinylcyclononane-7-en-2^8-yl)-2-hydroxyethane-1-sulfonamide] | 52 |  |  |  | 96 | 105
Cc1cc2nc(n1)N1CCC(F)(F)C(CCCc3ccc(cc3)-c3cc(NS(=O)(=O)CCO)ccc3C(=O)N2)C1 (single isomer, unassigned) [Example 46A, N-(1^4,1^4-difluoro-2^6-methyl-4-oxo-3-aza-2(2,4)-pyrimidin-1(1,3)-piperidin-5(1,2),6(1,4)-diphenylheterocyclononane-5^4-yl)-2-hydroxyethane-1-sulfonamide] | 117 |  |  |  | 36 | 58
Cc1cc2nc(n1)N1CCC(F)(F)[C@@H](CCCC3CCN(CC3)c3cc(NS(=O)(=O)CCO)c4c(c3C(=O)N2)CCC4=O)C1 [Example 10, N-((1^3S)-1^4,1^4-difluoro-2^6-methyl-5^1,4-dioxo-5^2,5^3-dihydro-5^1H-3-aza-2(2,4)-pyrimidin-1(1,3),6(1,4)-dipiperidin-5(4,5) -indenobicyclononane-5^7-yl)-2-hydroxyethane-1-sulfonamide] | 43 |  |  |  | 36 | 39
Cc1cc2nc(n1)N1CCC(F)(F)C(CCCc3ccn(c(=O)c3)-c3cc(NS(=O)(=O)CCO)ccc3C(=O)N2)C1 (stereo not drawn) [Example 52, N-(1^4,1^4-difluoro-2^6-methyl-6^2,4-dioxo-6^1,6^2-dihydro-3-aza-2(2,4)-pyrimidin-6(1,4)-pyridin-1(1,3)-piperidin-5(1,2)-phenylheterocyclononane-5^4-yl)-2-hydroxyethane-1-sulfonamide] | 555 |  |  |  | > 3000 | > 3000
Cc1cc2nc(n1)N1CCC(F)(F)C(/C=C/CC3CCN(CC3)c3cc(NS(=O)(=O)CCO)c(C(=O)O)cc3-n3cc-2nn3)C1 (stereo not drawn) [Example 91, 1^4,1^4-difluoro-4^4-((2-hydroxyethyl)sulfonamido)-2^6-methyl-3^1H-2(2,4)-pyrimidin-1(1,3),5(1,4)-dipiperidin-3(4,1)-triaz ole-4(1,2)-benzocyclooct-7-en-4^5 carboxylic acid] | 37 |  |  |  | > 3000 | > 3000
N-((1^3R,Z)-1^4,1^4-difluoro-5^1-hydroxy-2^6-methyl-4-oxo-5^2,5^3-dihydro-5^1H-3-aza-2(2,4)-pyrimidin-1(1,3),6(1,4)-dipiperi din-5(4,5)-indenoheterocyclonon-8-en-5^7-yl)-2-hydroxyethane-1-sulfonamide [Example 7] | 51 | 41 | 26 |  |  | 
